These are literature values, as cited in patent US20250381197A1, “Regimen for Treating Amyotrophic Lateral Sclerosis Having Onset 24 Months Prior to Treatment” (Woolsey Pharmaceuticals, Inc., priority 2022, published 2025).

The subject of data set [1] is ALS patients. The note with it: 6-month study; ALS onset between 3 and 36 months; 30 mg twice a day; cited from earlier work.
Another data set has as its system human ALS patients. The note with it: 30 mg intravenously twice daily over 20 consecutive working days; 3 patients; cited from earlier work.
For data set [2], the system named is ALS patients. The note with it: cited from earlier work.
The conditions of data set [3]: 1-hydroxy (M3) metabolite; cited from earlier work.

Where two headings read alike, the source gives them in different places.

With `Cl.O=S(=O)(c1cccc2cnccc12)N1CCCNCC1` [Fasudil, Hexahydro-1-(5-isoquinolinesulfonyl)-1H-1,4-diazepine monohydrochloride hemihydrate], the disease modification entry in the data set with ALS patients [1] is on record as “did not result in any disease modification”. For the same molecule, in the data set with human ALS patients, the “outcome of compassionate use” value is given as “no conclusive results beyond safety”.

With `CC1=NN(c2ccccc2)C(=O)C1` [edaravone], the primary endpoint entry is listed as “met the primary endpoint” with ALS patients [2] (enrollment narrowed to patients diagnosed two years or less (Tanaka 2016a)) and “did not meet the primary endpoint” in the data set on ALS patients [2] (enrollment of three years or less (Abe 2017)). In addition, the “treatment effect between placebo and edaravone” value with ALS patients [2] (severe ALS patients, disease onset of less than three years (Tanaka 2016b)) is “failed to demonstrate any treatment effect”.

Turning to `O=S(=O)(c1cccc2c(O)nccc12)N1CCCNCC1` [M3], the half-life result in data set [3] is reported as “about 8 hours”.
